How the values were obtained:
EX-Taq DNA polymerase = assay: PCR using EX-Taq with oxalate ion and betaine (Example 2-1); assay type: biochemical; conditions: 2 mM potassium oxalate, 0.5 M betaine, FIG. 11
Method: Oxalate ion and betaine were investigated for their synergistic effectiveness in amplification of a target DNA which cannot be usually amplified by PCR using EX-Taq DNA polymerase (TAKARA). Potassium oxalate was added to the PCR buffer attached to EX-Taq DNA polymerase to attain a final concentration of 2 mM. Also used were 0.2 mM dNTPs, 0.3 μM of a pair of primers consisting of the sequences of ID NOs:14 and 15 respectively, and 1.0 U EX-Taq DNA polymerase. 20 ng of genomic DNA derived from human cell line K562 was used as a template. This reaction mixture was subjected to PCR by using GeneAmp2400 (PE Applied Biosystems) to investigate the influence of varying the concentration of betaine added on the PCR results. The PCR conditions were as follows: 1preliminary reaction of 94° C. for 2 minutes, and then 35 cycles of 94° C. for 15 seconds, 60° C. for 30 seconds and 68° C. for 8.5 minutes.

nPfu DNA polymerase = biological target: T1, nPfu DNA polymerase (Pyrococcus furiosus, UniProt P61875); assay: PCR using nPfu DNA polymerase with added salts (Examples 1-5, 1-6); assay type: biochemical; conditions: salt at 4-6 mM of ion equivalent, FIG. 7
T1 construct: α-Type Enzyme (Native Pfu); purchased STRATAGENE
T1 sequence (P61875 1-775): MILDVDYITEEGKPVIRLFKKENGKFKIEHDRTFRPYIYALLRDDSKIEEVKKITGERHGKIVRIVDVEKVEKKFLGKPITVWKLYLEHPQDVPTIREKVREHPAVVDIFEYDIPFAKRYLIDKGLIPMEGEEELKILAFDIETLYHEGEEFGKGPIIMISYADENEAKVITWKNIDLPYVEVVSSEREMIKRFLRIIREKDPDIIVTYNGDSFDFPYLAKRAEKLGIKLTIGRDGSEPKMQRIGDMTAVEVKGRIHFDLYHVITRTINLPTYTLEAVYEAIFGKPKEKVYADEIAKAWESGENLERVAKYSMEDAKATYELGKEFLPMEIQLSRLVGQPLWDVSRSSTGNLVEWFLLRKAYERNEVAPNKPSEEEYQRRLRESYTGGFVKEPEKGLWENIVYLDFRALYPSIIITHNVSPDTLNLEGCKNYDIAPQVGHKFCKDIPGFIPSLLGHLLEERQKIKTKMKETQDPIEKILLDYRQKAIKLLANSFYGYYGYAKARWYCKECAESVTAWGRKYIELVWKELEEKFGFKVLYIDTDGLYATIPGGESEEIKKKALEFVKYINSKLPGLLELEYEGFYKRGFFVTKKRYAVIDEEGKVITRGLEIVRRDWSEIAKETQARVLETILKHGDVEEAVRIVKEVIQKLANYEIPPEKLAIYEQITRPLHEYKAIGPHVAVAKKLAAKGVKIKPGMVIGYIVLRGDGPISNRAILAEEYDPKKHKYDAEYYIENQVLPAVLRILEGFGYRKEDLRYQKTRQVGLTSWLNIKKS
Method: The effect produced by the addition of oxalate ion in PCR was investigated using nPfu polymerase. A PCR buffer (20 mM Tris-HCl (pH 8.75), 10 mM KCl, 10 mM (NH4) 2SO4, 2 mM MgSO4, 0.1% Triton X-100, 100 μg/ml BSA) attached to nPfu (STRATAGENE), 0.2 mM of dNTPs, and 0.3 μM of a pair of primers of SEQ ID NOs:12, and 13 were used. PCR was performed by using 2.5 U nPfu DNA polymerase and 20 ng of genomic DNA derived from human cell line K562 as a template, with the influence on the PCR result caused by varying the concentration of oxalate ion being investigated. PCR was performed by using GeneAmp2400 (PE Applied Biosystems) with the following conditions: 1 preliminary reaction of 94° C. for 2 minutes, and then 35 cycles of 94° C. for 15 seconds, 60° C. for 30 seconds and 68° C. for 8 minutes.
Salts (potassium chloride, potassium acetate, potassium oxalate, potassium sulfate) were tested for their effectiveness in PCR using nPfu DNA polymerase under the same conditions as Example 1-5.

Row | SMILES | amplification of target DNA (EX-Taq DNA polymerase) | amplification of target DNA (electrophoresis pattern) (nPfu DNA polymerase)
1 | C[N+](C)(C)CC(=O)[O-] [betaine, trimethylglycine] | an increase in amplification amount was observed | 
2 | O=C([O-])C(=O)[O-].[K+].[K+] [potassium oxalate] |  | amplification of the target DNA observed
